Where two headings read alike, the source gives them in different places.
Experiments:
human CB2 receptor = human CB2 receptor (Homo sapiens (Human), UniProt P34972); assay: CB2 receptor binding assay ([3H]CP-55,940 displacement, HEK-293 membranes)
human recombinant CB1R = human recombinant CB1R (Homo sapiens (Human), UniProt P21554); assay: CB1 receptor binding assay ([3H]CP-55,940 displacement, HEK-293 membranes); conditions: membranes of HEK-293 cells with human recombinant CB1R, [3H]CP-55,940, read-out: CB1 IC50
human recombinant CB1R, sequence (P21554 whole entry): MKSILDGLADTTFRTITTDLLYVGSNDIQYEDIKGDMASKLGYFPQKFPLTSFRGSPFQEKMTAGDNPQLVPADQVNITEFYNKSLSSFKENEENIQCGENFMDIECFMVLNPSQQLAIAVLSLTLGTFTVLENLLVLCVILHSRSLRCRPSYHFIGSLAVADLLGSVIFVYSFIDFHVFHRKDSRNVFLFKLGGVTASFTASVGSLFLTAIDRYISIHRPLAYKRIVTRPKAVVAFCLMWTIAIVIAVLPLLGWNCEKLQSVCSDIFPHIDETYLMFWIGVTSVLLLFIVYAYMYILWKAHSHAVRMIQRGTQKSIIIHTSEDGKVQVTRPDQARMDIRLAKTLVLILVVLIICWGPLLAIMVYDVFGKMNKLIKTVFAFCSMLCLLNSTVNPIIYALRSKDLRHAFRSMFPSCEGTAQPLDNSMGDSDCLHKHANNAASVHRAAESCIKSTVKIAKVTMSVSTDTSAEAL
Outline: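 Membranes from HEK-293 cells expressing human recombinant CB1R or CB2R were incubated with [3H]CP-55,940 and compound for 120 min at 37 °C in duplicate. The CB2R incubation buffer was 50 mM Tris-HCl, 5 mM MgCl2, 1 mM CaCl2, 0.2% BSA, pH 7.4. Bound radioactivity was filtered and counted, and IC50 was converted to Ki by Cheng–Prusoff.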

[1] = membranes of HEK-293 cells with human recombinant CB2R, [3H]CP-55,940, class symbols, read-out: CB2 IC50
[2] = membranes of HEK-293 cells with human recombinant CB2R, [3H]CP-55,940, read-out: CB2 IC50

human CB2 receptor, sequence (P34972 whole entry): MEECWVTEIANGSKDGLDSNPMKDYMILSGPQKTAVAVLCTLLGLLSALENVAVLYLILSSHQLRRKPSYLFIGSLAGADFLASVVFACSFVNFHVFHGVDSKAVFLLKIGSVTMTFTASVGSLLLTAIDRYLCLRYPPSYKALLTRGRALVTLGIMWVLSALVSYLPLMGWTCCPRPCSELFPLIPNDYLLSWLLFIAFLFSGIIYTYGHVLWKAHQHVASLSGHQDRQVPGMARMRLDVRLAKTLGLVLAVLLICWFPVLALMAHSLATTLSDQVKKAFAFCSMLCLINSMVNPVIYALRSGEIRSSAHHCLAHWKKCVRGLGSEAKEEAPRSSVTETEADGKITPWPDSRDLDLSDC

| SMILES | IC50 (human CB2 receptor; [1]) [µM] | IC50 (human recombinant CB1R; class symbols) [µM] | IC50 (human CB2 receptor) [µM] | IC50 (human CB2 receptor; [2]) [µM] | IC50 (human recombinant CB1R) [µM] |
| --- | --- | --- | --- | --- | --- |
| O=C(NC12CC(C1)C2)c1c(O)c2cc(-c3ccc(F)cc3)cnc2n(Cc2cccnc2)c1=O [Compound 130, N-(bicyclo[1.1.1]pentan-1-yl)-6-(4-fluorophenyl)-4-hydroxy-2-oxo-1-(pyridin-3-ylmethyl)-1,2-dihydro-1,8-naphthyridine-3-carboxamide] | > 1 | > 1 | – | – | – |
| O=C(NC12CC(C1)C2)c1c(O)c2cc(-c3ccc(F)cc3)cnc2n(Cc2ccc(F)cn2)c1=O [Compound 131, N-(bicyclo[1.1.1]pentan-1-yl)-6-(4-fluorophenyl)-1-((5-fluoropyridin-2-yl)methyl)-4-hydroxy-2-oxo-1,2-dihydro-1,8-naphthyridine-3-carboxamide] | > 1 | > 1 | – | – | – |
| CN1CCN(CCn2c(=O)c(C(=O)NC34CC(C3)C4)c(O)c3cc(-c4ccc(F)cc4)cnc32)CC1 [Compound 132, N-(bicyclo[1.1.1]pentan-1-yl)-6-(4-fluorophenyl)-4-hydroxy-1-(2-(4-methylpiperazin-1-yl)ethyl)-2-oxo-1,2-dihydro-1,8-naphthyridine-3-carboxamide] | – | > 1 | 0.1 to 0.999 | – | – |
| O=C(NC12CC(C1)C2)c1c(O)c2cc(-c3ccc(F)cc3)cnc2n(CCN2CCC(F)CC2)c1=O [Compound 133, N-(bicyclo[1.1.1]pentan-1-yl)-6-(4-fluorophenyl)-4-hydroxy-2-oxo-1-(2-(4-fluoropiperidin-1-yl)ethyl)-1,2-dihydro-1,8-naphthyridine-3-carboxamide] | – | > 1 | 0.1 to 0.999 | – | – |
| O=C(NC1CC2(CCC2)C1)c1c(O)c2cccnc2n(Cc2ccc(F)cc2)c1=O [Compound 134, 1-(4-fluorobenzyl)-4-hydroxy-2-oxo-N-(spiro[3.3]heptan-2-yl)-1,2-dihydro-1,8-naphthyridine-3-carboxamide] | – | > 1 | 0.1 to 0.999 | – | – |
| O=C(NC1CC2(CCC2)C1)c1c(O)c2cccnc2n(CCN2CCOCC2)c1=O [Compound 135, 4-hydroxy-2-oxo-1-(2-morpholinoethyl)-N-(spiro[3.3]heptan-2-yl)-1,2-dihydro-1,8-naphthyridine-3-carboxamide] | < 0.1 | > 1 | – | – | – |
| O=C(NC12CC(C1)C2)c1c(O)c2cccnc2n(CCN2CCOCC2)c1=O [Compound 136, N-(bicyclo[1.1.1]pentan-1-yl)-4-hydroxy-1-(2-morpholinoethyl)-2-oxo-1,2-dihydro-1,8-naphthyridine-3-carboxamide] | > 1 | > 1 | – | – | – |
| C[C@H]1CC[C@@H](NC(=O)c2c(O)c3cccnc3n(CCN3CCOCC3)c2=O)CC1 [Compound 137, 4-hydroxy-N-((1s, 4s)-4-methylcyclohexyl)-1-(2-morpholinoethyl)-2-oxo-1,2-dihydro-1,8-naphthyridine-3-carboxamide] | – | – | – | 0.015 | > 10 |
| O=C(NC1(CO)CCCCC1)c1c(O)c2cccnc2n(CCN2CCOCC2)c1=O [Compound 138, 4-hydroxy-N-[1-(hydroxymethyl)cyclohexyl]-1-(2-morpholinoethyl)-2-oxo-1,8-naphthyridine-3-carboxamide] | – | > 1 | 0.1 to 0.999 | – | – |
| O=C(NC12CC(C1)C2)c1c(O)c2cccnc2n(Cc2ccc(F)cc2)c1=O [Compound 139, N-(1-bicyclo[1.1.1]pentanyl)-1-[(4-fluorophenyl)methyl]-4-hydroxy-2-oxo-1,8-naphthyridine-3-carboxamide] | > 1 | > 1 | – | – | – |
| CC(C)(CO)NC(=O)c1c(O)c2cccnc2n(Cc2ccc(F)cc2)c1=O [Compound 140, 1-[(4-fluorophenyl)methyl]-4-hydroxy-N-(2-hydroxy-1,1-dimethyl-ethyl)-2-oxo-1,8-naphthyridine-3-carboxamide] | – | > 1 | 0.1 to 0.999 | – | – |
| CC12CC(NC(=O)c3c(O)c4cccnc4n(Cc4ccc(F)cc4)c3=O)(C1)C2 [Compound 141, 1-[(4-fluorophenyl)methyl]-4-hydroxy-N-(3-methyl-1-bicyclo[1.1.1]pentanyl)-2-oxo-1,8-naphthyridine-3-carboxamide] | – | > 1 | 0.1 to 0.999 | – | – |
| O=C(NC1CC2(CC2)C1)c1c(O)c2cccnc2n(Cc2ccc(F)cc2)c1=O [Compound 142, 1-[(4-fluorophenyl)methyl]-4-hydroxy-2-oxo-N-spiro[2.3]hexan-5-yl-1,8-naphthyridine-3-carboxamide] | – | > 1 | 0.1 to 0.999 | – | – |
| C[C@H]1CC[C@@H](NC(=O)c2c(O)c3cccnc3n(Cc3ccc(F)cc3)c2=O)CC1 [Compound 143, 1-(4-fluorobenzyl)-4-hydroxy-N-((1s, 4s)-4-methylcyclohexyl)-2-oxo-1,2-dihydro-1,8-naphthyridine-3-carboxamide] | – | – | – | 0.034 | 3.36 |
| C[C@H]1CC[C@H](NC(=O)c2c(O)c3cccnc3n(Cc3ccc(F)cc3)c2=O)CC1 [Compound 144, 1-(4-fluorobenzyl)-4-hydroxy-N-((1r, 4r)-4-methylcyclohexyl)-2-oxo-1,2-dihydro-1,8-naphthyridine-3-carboxamide] | – | – | – | 1.5 | > 10 |
| O=C(NC1(CO)CCCCC1)c1c(O)c2cccnc2n(Cc2ccc(F)cc2)c1=O [Compound 145, 1-[(4-fluorophenyl)methyl]-4-hydroxy-N-[1-(hydroxymethyl)cyclohexyl]-2-oxo-1,8-naphthyridine-3-carboxamide] | < 0.1 | > 1 | – | – | – |
| O=C(NC12CC(C1)C2)c1c(O)c2nccnc2n(CCN2CCOCC2)c1=O [Compound 146, N-(bicyclo[1.1.1]pentan-1-yl)-8-hydroxy-5-(2-morpholinoethyl)-6-oxo-5,6-dihydropyrido[2,3-b]pyrazine-7-carboxamide] | > 1 | > 1 | – | – | – |
| O=C(NC12CC(C1)C2)c1c(O)c2nccnc2n(Cc2ccc(F)cc2)c1=O [Compound 147, N-(bicyclo[1.1.1]pentan-1-yl)-5-(4-fluorobenzyl)-8-hydroxy-6-oxo-5,6-dihydropyrido[2,3-b]pyrazine-7-carboxamide] | > 1 | > 1 | – | – | – |
| COc1ccc(-c2cnc3c(c2)c(O)c(C(=O)N[C@H]2CC[C@H](C)CC2)c(=O)n3CCN2CCOCC2)cc1 [Compound 148, 4-hydroxy-6-(4-methoxyphenyl)-N-((1R,4R)-4-methylcyclohexyl)-1-(2-morpholinoethyl)-2-oxo-1,2-dihydro-1,8-naphthyridine-3-carboxamide] | > 1 | > 1 | – | – | – |
| COc1ccc(-c2cnc3c(c2)c(O)c(C(=O)N[C@H]2CC[C@@H](C)CC2)c(=O)n3CCN2CCOCC2)cc1 [Compound 149, 4-hydroxy-6-(4-methoxyphenyl)-N-((1s,4S)-4-methylcyclohexyl)-1-(2-morpholinoethyl)-2-oxo-1,2-dihydro-1,8-naphthyridine-3-carboxamide] | < 0.1 | > 1 | – | – | – |
| COc1ccc(-c2cnc3c(c2)c(O)c(C(=O)N[C@H](C)c2ccc(F)cc2)c(=O)n3CCN2CCOCC2)cc1 [Compound 150, (R)—N-(1-(4-fluorophenyl)ethyl)-4-hydroxy-6-(4-methoxyphenyl)-1-(2-morpholinoethyl)-2-oxo-1,2-dihydro-1,8-naphthyridine-3-carboxamide] | – | > 1 | 0.1 to 0.999 | – | – |

From patent US11564928B1, “Cannabinoid receptor type 2 (CB2) modulators and uses thereof” (Teon Therapeutics, Inc., priority 2020, dated 2023)
